The results in this text go back to patent US8030354B2, “Substituted biphenyl GPR40 modulators” (Amgen Inc., priority 2007, dated 2011).

Assay [1] has as its target T1, GPR40 (Homo sapiens, UniProt O14842). The experiment in a line: Cell-based aequorin assay (CHO cells stably expressing GPR40 and aequorin). Further details: expressed in transfected cells; host or cells: CHO cells stably transfected with GPR40 and aequorin. The note with it: activation of human GPR40, CHO cells, 0.01% HSA. A digest of the protocol:
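CHO cells stably co-expressing GPR40 and aequorin, loaded with coelenterazine (1 ug/mL, 2 h, room temperature) in H/HBSS with 20 mM Hepes and 0.01% fatty acid-free HSA. Serially diluted compounds added; luminescence recorded over 20 s. EC50 from dose-response of maximum relative light units.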

Assay [2] addresses T1, GPR40. The experiment in a line: Inositol phosphate accumulation assay (A9_GPR40 cells). Type of assay: cell-based. Further details: expressed in transfected cells; host or cells: CHO cells stably transfected with GPR40 and aequorin. The note with it: inositol phosphate assay, A9_GPR40 cells, 1 hour; read-out: IP3 EC50. A digest of the protocol: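 [^3H] inositol phosphate accumulation was measured by SPA after 1 h compound exposure at 37° C in HBSS/10 mM LiCl containing HSA, ending with a 20 mM formic acid quench. The GPR40-transfected A9 cells had first been labelled overnight (16 h) with 1 μCi/mL ^3H-inositol.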

The EC50 is the midpoint of the concentration-response curve.

A value given as a limit tells only on which side of the number the result lay.

T1 sequence (O14842 whole entry): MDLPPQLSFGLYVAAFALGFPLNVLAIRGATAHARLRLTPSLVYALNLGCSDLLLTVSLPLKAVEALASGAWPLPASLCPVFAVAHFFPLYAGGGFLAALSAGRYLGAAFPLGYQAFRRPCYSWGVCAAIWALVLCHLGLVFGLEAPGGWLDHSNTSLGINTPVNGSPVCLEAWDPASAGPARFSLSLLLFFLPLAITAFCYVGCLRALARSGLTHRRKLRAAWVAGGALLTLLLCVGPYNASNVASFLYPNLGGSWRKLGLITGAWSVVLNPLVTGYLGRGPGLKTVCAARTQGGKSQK

Turning to `CCC(CC(=O)O)c1cccc(NCc2ccc(-c3cc(OC)ccc3F)c(C3=CCCC3(C)C)c2)c1` (single isomer, unassigned) [Example 81, (3R)-3-(3-(((2-(5,5-Dimethyl-1-cyclopenten-1-yl)-2′-fluoro-5′-(methyloxy)-1,1′-biphenyl-4-yl)methyl)amino)phenyl)pentanoic acid or (3S)-3-(3-(((2-(5,5-dimethyl-1-cyclopenten-1-yl)-2′-fluoro-5′-(methyloxy)-1,1′-biphenyl-4-yl)methyl)amino)phenyl)pentanoic acid], the EC50 on GPR40 [1] is 100 to 1000 nM; on GPR40 [2], above 10000 nM.

In the case of `CC[C@H](CC(=O)O)c1cccc(SCc2ccc(-c3cc(OC)ccc3F)c([C@H]3CCCC3(C)C)c2)c1` (single isomer, unassigned) [Example 82], the EC50 on GPR40 [1] was 100 to 1000 nM; at GPR40 [2], 1000 to 10000 nM.

In the case of `COc1ccc(F)c(-c2cc(F)c(COc3cccc([C@@H](CC(=O)O)C4CC4)c3F)cc2[C@H]2CCCC2(C)C)c1` (single isomer, unassigned) [Example 83.2], the EC50 was 10 to 100 nM at GPR40 [1] and below 10 nM at GPR40 [2].

Take `CC1(C)CCC[C@@H]1c1cc(COc2cccc([C@@H](CC(=O)O)C3CC3)c2F)ccc1-c1cc(C(F)F)ccc1F` (single isomer, unassigned) [Example 83.3]: the EC50 on GPR40 [1] lay in the range of 100 to 1000 nM; at GPR40 [2] it was 10 to 100 nM.

Turning to `COc1cc(-c2ccc(COc3cccc([C@@H](CC(=O)O)C4CC4)c3F)cc2[C@H]2CCCC2(C)C)c(F)cn1` (single isomer, unassigned) [Example 83.4], the EC50 at GPR40 [1] is 10 to 100 nM; at GPR40 [2] it was below 10 nM.

On to `COc1cc(-c2ccc(COc3cccc([C@@H](CC(=O)O)C4CC4)c3F)cc2[C@@H]2CCCC2(C)C)c(F)cn1` (single isomer, unassigned) [Example 83.5], for which the EC50 lay in the range of 100 to 1000 nM at GPR40 [1] and 10 to 100 nM at GPR40 [2].

`COc1ccc(F)c(-c2ccc(COc3cccc(C(CC(=O)O)C4CC4)c3F)cc2C(C)C(C)(C)C)c1` (single isomer, unassigned) [Example 83.6]: the EC50 is 100 to 1000 nM on GPR40 [1] and below 10 nM at GPR40 [2].

Consider `COc1ccc(F)c(-c2ccc(COc3cccc(C(CC(=O)O)C4CC4)c3F)cc2C2CCCCC2(C)C)c1` (single isomer, unassigned) [Example 83.7], for which the values for the EC50 at GPR40 [1] and on GPR40 [2] were 100 to 1000 nM and below 10 nM, respectively.

`COc1ccc(F)c(-c2ccc(COc3cccc(C(CC(=O)O)C4CC4)c3F)cc2C(OC)C(C)(C)C)c1` (single isomer, unassigned) [Example 83.8]: the EC50 on GPR40 [1] is 100 to 1000 nM; on GPR40 [2], below 10 nM.

In the case of `COc1ccc(F)c(-c2ccc(COc3cccc(C(CC(=O)O)C4CC4)c3F)cc2C(F)C(C)(C)C)c1` (single isomer, unassigned) [Example 83.9], the EC50 on GPR40 [1] is 100 to 1000 nM; on GPR40 [2], below 10 nM.

Regarding `CCO[C@H](c1cc(COc2cccc([C@@H](CC(=O)O)C3CC3)c2F)ccc1-c1ccccc1F)C(C)(C)C` (single isomer, unassigned) [Example 83.10], the figures for the EC50 at GPR40 [1] and at GPR40 [2] were 100 to 1000 nM and 10 to 100 nM, respectively.

Take `COCCO[C@H](c1cc(COc2cccc([C@@H](CC(=O)O)C3CC3)c2F)ccc1-c1ccccc1F)C(C)(C)C` (single isomer, unassigned) [Example 83.11]: the EC50 on GPR40 [1] fell in the range of 100 to 1000 nM; on GPR40 [2], 10 to 100 nM.

With `CC1(C)CCC=C1c1cc(COc2cccc([C@@H](CC(=O)O)C3CC3)c2F)ccc1-c1cc(C(F)F)ccc1F` (single isomer, unassigned) [Example 83.12, (3S)-3-Cyclopropyl-3-(3-(((5′-(difluoromethyl)-2-(5,5-dimethyl-1-cyclopenten-1-yl)-2′-fluoro-1,1′-biphenyl-4-yl)methyl)oxy)-2-fluorophenyl)propanoic acid or (3R)-3-cyclopropyl-3-(3-(((5′-(difluoromethyl)-2-(5,5-dimethyl-1-cyclopenten-1-yl)-2′-fluoro-1,1′-biphenyl-4-yl)methyl)oxy)-2-fluorophenyl)propanoic acid], the values for the EC50 at GPR40 [1] and at GPR40 [2] were 100 to 1000 nM and 10 to 100 nM, respectively.

Consider `COc1ccc(F)c(-c2ccc(COc3cccc(C(CC(=O)O)C4CC4)c3F)cc2C2=CCCC2(C)C)c1` (single isomer, unassigned) [Example 83.14, (3S)-3-Cyclopropyl-3-(3-(((2-(5,5-dimethyl-1-cyclopenten-1-yl)-2′-fluoro-5′-(methyloxy)-1,1′-biphenyl-4-yl)methyl)oxy)-2-fluorophenyl)propanoic acid or (3R)-3-cyclopropyl-3-(3-(((2-(5,5-dimethyl-1-cyclopenten-1-yl)-2′-fluoro-5′-(methyloxy)-1,1′-biphenyl-4-yl)methyl)oxy)-2-fluorophenyl)propanoic acid], for which the EC50 is 100 to 1000 nM on GPR40 [1] and below 10 nM on GPR40 [2].

For the compound `COc1ccc(F)c(-c2ccc(COc3cccc(C(CC(=O)O)C4CC4)c3F)cc2CC(C)(C)C)c1` (single isomer, unassigned) [Example 83.15, (3S)-3-Cyclopropyl-3-(3-(((2-(2,2-dimethylpropyl)-2′-fluoro-5′-(methyloxy)-1,1′-biphenyl-4-yl)methyl)oxy)-2-fluorophenyl)propanoic acid or (3R)-3-cyclopropyl-3-(3-(((2-(2,2-dimethylpropyl)-2′-fluoro-5′-(methyloxy)-1,1′-biphenyl-4-yl)methyl)oxy)-2-fluorophenyl)propanoic acid], the EC50 at GPR40 [1] was 100 to 1000 nM; at GPR40 [2], below 10 nM.

With `COc1ccc(F)c(-c2cc(F)c(COc3cccc(C(CC(=O)O)C4CC4)c3F)cc2C2=CCCC2(C)C)c1` (single isomer, unassigned) [Example 83.16, (3S)-3-Cyclopropyl-3-(3-(((2-(5,5-dimethyl-1-cyclopenten-1-yl)-2′,5-difluoro-5′-(methyloxy)-1,1′-biphenyl-4-yl)methyl)oxy)-2-fluorophenyl)propanoic acid or (3R)-3-cyclopropyl-3-(3-(((2-(5,5-dimethyl-1-cyclopenten-1-yl)-2′,5-difluoro-5′-(methyloxy)-1,1′-biphenyl-4-yl)methyl)oxy)-2-fluorophenyl)propanoic acid], the figures for the EC50 on GPR40 [1] and at GPR40 [2] were 100 to 1000 nM and 10 to 100 nM, respectively.

Consider `COc1ccc(F)c(-c2c(F)cc(COc3cccc([C@@H](CC(=O)O)C4CC4)c3F)cc2[C@H]2CCCC2(C)C)c1` (single isomer, unassigned) [Example 83.20], for which the values for the EC50 on GPR40 [1] and on GPR40 [2] were 100 to 1000 nM and below 10 nM, respectively.

Consider `COc1cc(-c2ccc(COc3cccc([C@@H](CC(=O)O)C4CC4)c3F)cc2[C@@H](OC)C(C)(C)C)c(F)cn1` (single isomer, unassigned) [Example 83.21], for which the EC50 on GPR40 [1] was 10 to 100 nM; at GPR40 [2] it was below 10 nM.

Consider `COc1ccc(F)c(-c2ccc(COc3cccc([C@@H](CC(=O)O)C4CC4)c3F)cc2[C@@H](OC)C2(C)CC2)c1` (single isomer, unassigned) [Example 83.22], for which the EC50 at GPR40 [1] is 10 to 100 nM; at GPR40 [2], below 10 nM.

Regarding `COc1ccc(F)c(-c2c(F)cc(COc3cccc([C@@H](CC(=O)O)C4CC4)c3F)cc2[C@@H]2CCCC2(C)C)c1` (single isomer, unassigned) [Example 83.24], the EC50 at GPR40 [1] was 100 to 1000 nM; at GPR40 [2] it was 10 to 100 nM.

As to `CC1(C)CCC[C@@H]1c1cc(COc2cccc([C@@H](CC(=O)O)C3CC3)c2F)ccc1-c1cc(F)ccc1F` (single isomer, unassigned) [Example 83.25], the results for the EC50 on GPR40 [1] and at GPR40 [2] were 100 to 1000 nM and 10 to 100 nM, respectively.

`COc1ccc(F)c(-c2ccc(COc3cccc([C@@H](CC(=O)O)C4CC4)c3F)cc2[C@H](OC)C(C)(C)OC)c1` (single isomer, unassigned) [Example 83.26]: the figures for the EC50 on GPR40 [1] and on GPR40 [2] were 100 to 1000 nM and 10 to 100 nM, respectively.

Turning to `CO[C@H](c1cc(COc2cccc([C@@H](CC(=O)O)C3CC3)c2F)ccc1-c1cc(F)ccc1F)C(C)(C)C` (single isomer, unassigned) [Example 83.27], the EC50 on GPR40 [1] was 100 to 1000 nM; at GPR40 [2] it was 10 to 100 nM.

Consider `CCc1cccc(-c2ccc(COc3cccc([C@@H](CC(=O)O)C4CC4)c3F)cc2[C@H]2CCCC2(C)C)c1` (single isomer, unassigned) [Example 83.28], for which the EC50 was in the range of 100 to 1000 nM on GPR40 [1] and 10 to 100 nM at GPR40 [2].

Consider `COc1ccc(F)c(-c2ccc(COc3cccc(C(CC(=O)O)C4CC4)c3F)cc2CN2CCCCCC2)c1` (single isomer, unassigned) [Example 83.29, (3S)-3-(3-(((2-(1-Azepanylmethyl)-2′-fluoro-5′-(methyloxy)-1,1′-biphenyl-4-yl)methyl)oxy)-2-fluorophenyl)-3-cyclopropylpropanoic acid or (3R)-3-(3-(((2-(1-Azepanylmethyl)-2′-fluoro-5′-(methyloxy)-1,1′-biphenyl-4-yl)methyl)oxy)-2-fluorophenyl)-3-cyclopropylpropanoic acid], for which the EC50 at GPR40 [1] is 1000 to 10000 nM; at GPR40 [2], 100 to 1000 nM.

In the case of `COc1cc(-c2cc(F)c(COc3cccc([C@@H](CC(=O)O)C4CC4)c3F)cc2[C@H]2CCCC2(C)C)c(F)cn1` (single isomer, unassigned) [Example 83.34], the figures for the EC50 on GPR40 [1] and at GPR40 [2] were 10 to 100 nM and below 10 nM, respectively.

`COc1ccc(F)c(-c2ccc(COc3cccc(C(CC(=O)O)CC4CC4)c3F)cc2C2CCCC2(C)C)c1` (single isomer, unassigned) [Example 84.1]: the EC50 on GPR40 [1] was 100 to 1000 nM; on GPR40 [2], below 10 nM.
